Tests used:
[1] = test system: Normal human liver cells (hepatocytes); assay: ATP production promotive action test in hepatocytes; format: cell-based; conditions: 2 hours
Method: Normal human liver cells (hepatocytes) were cultured using Dulbecco's modified Eagle's medium (DMEM) containing 10% FBS, and then the cells were collected by a trypsin treatment. The collected cells were diluted with DMEM containing 10% FBS to a cell density of 2.0×10^5 cells/mL, then seeded with 100 μL per well in a 96-well plate, and cultured overnight.
After the culturing was completed, the medium was removed, 100 μL of each of test samples (Samples 1 to 3, see Table 31 below for final concentrations) dissolved in DMEM containing 10% FBS was added to each well, and culturing was performed for 2 hours. As a control, culturing was performed in the same manner using DMEM containing 10% FBS to which no sample was added.
The ATP production promotive action was evaluated by measuring the amount of ATP in cells using the firefly luciferase luminescence method. That is, after culturing for 2 hours, 100 μL of an ATP measurement reagent (available from Toyo B-Net Co., Ltd., trade name “‘Cellular’ ATP measurement reagent”) was added to each well, and chemiluminescence reaction using luciferase was performed. After the reaction, the amount of chemiluminescence proportional to the amount of intracellular ATP was measured using a chemiluminescence measurement device (available from Thermo Fisher Scientific, product name: Varioskan LUX multimode microplate reader). From the obtained results, the ATP production promotion rate (%) was calculated using the following equation.
Terms in the equation represent the following respective ones. • A: Chemiluminescence amount with test sample addition • B: Chemiluminescence amount without sample addition

[2] = test system: Normal human liver cells (hepatocytes); assay: Glutathione production promotive action test (hepatocytes); format: cell-based; conditions: 24 hours
Method: Normal human liver cells (hepatocytes) were cultured using Dulbecco's modified Eagle's medium (DMEM) containing 10% FBS, and then the cells were collected by a trypsin treatment. The collected cells were diluted with DMEM containing 10% FBS to a cell density of 10×10^4 cells/mL, then seeded with 200 μL per well in a 48-well plate, and cultured overnight.
After culturing, the medium was removed, 200 μL of each of test samples (Samples 1 to 3, see Table 30 below for final concentrations) dissolved in DMEM containing 1% FBS was added to each well, and culturing was further performed for 24 hours. As a control, culturing was performed in the same manner using DMEM containing 1% FBS to which no sample was added. After the culturing was completed, the medium was removed from each well, and the cells were washed with 400 μL of PBS(−) and then lysed using 150 μL of M-PER (available from PIERCE).
Quantitative determination of total glutathione was performed using 100 μL of the lysed cells. That is, 100 μL of lysed cell extract, 50 μL of 0.1 mol/L phosphate buffer solution, 25 μL of 2 mmol/L NADPH, and 25 μL of 3.2 unit/mL glutathione reductase were added to a 96-well plate and heated at 37° C. for 10 minutes, then 25 μL of 10 mmol/L 5,5′-dithiobis(2-nitrobenzoic acid) was added, and the absorbance at a wavelength of 412 nm was measured until 5 minutes later to determine ΔOD/min. The total glutathione concentration was calculated based on a calibration curve created using oxidized glutathione (available from FUJIFILM Wako Pure Chemical Corporation). After correcting the obtained value to the glutathione value per total protein amount, the glutathione production promotion rate (%) was calculated based on the following equation.
Terms in the equation represent the following respective ones. • A: Glutathione amount per total protein amount without sample addition • B: Glutathione amount per total protein amount with test sample addition

AGEs = assay: Advanced glycation end product (AGEs) formation suppressive action test; conditions: type I collagen-coated plate, 0.2M D(−)-ribose, 37° C., 20 days
Method: In a 96-well type I collagen-coated plate (available from AGC Inc.), 100 μL of a mixed solution of 0.2M D(−)-ribose prepared with PBS(−) buffer solution and each of test samples (Samples 1 and 2, see Table 22 below for final concentrations) were added and statically placed at 37° C. for 20 days to form AGEs. In addition, PBS(−) buffer solution only as a negative control and a 0.2M D(−)-ribose solution prepared with PBS(−) buffer solution as a positive control were statically placed in the same manner. After 20 days, the amount of AGEs was measured by the ELISA method using an anti-AGEs antibody (available from TPANS GENIC INC.), and the AGEs formation suppressive action was evaluated. From the obtained results, the AGEs formation suppression rate (%) was calculated using the following equation.
Terms in the equation represent the following respective ones. • A: Absorbance at wavelength 405 nm in negative control • B: Absorbance at wavelength 405 nm in positive control • C: Absorbance at wavelength 405 nm with test sample addition

[3] = test system: Normal human neonatal epidermal keratinocytes (NHEK); assay: ATP production promotive action test (epidermal keratinocytes); format: cell-based; conditions: 2 hours
Method: Normal human neonatal epidermal keratinocytes (NHEK) were cultured using normal human epidermal keratinocyte growth medium (KGM), and then the cells were collected by a trypsin treatment. The collected cells were diluted with KGM to a cell density of 2.0×10^5 cells/mL, then seeded with 100 μL per well on a collagen-coated 96-well plate, and cultured overnight. After the culturing was completed, the medium was removed, and 100 μL of KGM to which each of test samples (Samples 1 and 2, see Table 13 below for final concentrations) was added was added to each well, and culturing was performed for 2 hours. As a control, culturing was performed in the same manner using KGM to which no sample was added.
The ATP production promotive action was determined by measuring the amount of ATP in cells using the firefly luciferase luminescence method. […] After the reaction, the amount of chemiluminescence proportional to the amount of intracellular ATP was measured using a chemiluminescence measurement device (available from Thermo Fisher Scientific, product name: Varioskan LUX multimode microplate reader). From the obtained results, the ATP production promotion rate (%) was calculated using the following equation. […]

SMILES	ATP production promotion rate ([1]; 250 μmol/L)	ATP production promotion rate ([1]; 500 μmol/L)	ATP production promotion rate ([1]; 1000 μmol/L)	Glutathione production promotion rate ([2]; 31.2 μmol/L)	Glutathione production promotion rate ([2]; 125 μmol/L)	Glutathione production promotion rate ([2]; 500 μmol/L)	AGEs formation suppression rate (AGEs; 2000 μmol/L)	ATP production promotion rate ([3]; 25 μmol/L)	AGEs formation suppression rate (AGEs; 125 μmol/L)	AGEs formation suppression rate (AGEs; 500 μmol/L)	ATP production promotion rate ([3]; 6.25 μmol/L)
O=C(O)CCc1ccccc1 [Sample 3, 3-phenylpropionic acid]	128.0%	136.5%	156.1%	133.9%	124.6%	119.2%					
O=C(O)CCc1ccc(O)cc1 [Sample 2, 3-(4-Hydroxyphenyl)propionic acid]	141.9%	159.1%	165.1%	119.2%	118.1%		13.3%	112.4%			
O=C(O)CCc1ccc(O)c(O)c1 [Sample 1, 3,4-Dihydroxyhydrocinnamic acid]	128.4%	166.8%	168.9%	123.9%	124.8%	113.4%	78.4%		45.7%	69.4%	106.7%

Source: patent US20240252456A1, “ORAL COMPOSITION, SKIN COSMETIC AND HAIR COSMETIC” (MARUZEN PHARMACEUTICALS CO., LTD., priority 2021, published 2024)
